The target in data set [1] is T1, SSAO (Rattus norvegicus, UniProt O08590).
T1 construct: from tissue; host or cells: rat lung homogenate (1000 g supernatant)
T1 sequence (O08590 1-763): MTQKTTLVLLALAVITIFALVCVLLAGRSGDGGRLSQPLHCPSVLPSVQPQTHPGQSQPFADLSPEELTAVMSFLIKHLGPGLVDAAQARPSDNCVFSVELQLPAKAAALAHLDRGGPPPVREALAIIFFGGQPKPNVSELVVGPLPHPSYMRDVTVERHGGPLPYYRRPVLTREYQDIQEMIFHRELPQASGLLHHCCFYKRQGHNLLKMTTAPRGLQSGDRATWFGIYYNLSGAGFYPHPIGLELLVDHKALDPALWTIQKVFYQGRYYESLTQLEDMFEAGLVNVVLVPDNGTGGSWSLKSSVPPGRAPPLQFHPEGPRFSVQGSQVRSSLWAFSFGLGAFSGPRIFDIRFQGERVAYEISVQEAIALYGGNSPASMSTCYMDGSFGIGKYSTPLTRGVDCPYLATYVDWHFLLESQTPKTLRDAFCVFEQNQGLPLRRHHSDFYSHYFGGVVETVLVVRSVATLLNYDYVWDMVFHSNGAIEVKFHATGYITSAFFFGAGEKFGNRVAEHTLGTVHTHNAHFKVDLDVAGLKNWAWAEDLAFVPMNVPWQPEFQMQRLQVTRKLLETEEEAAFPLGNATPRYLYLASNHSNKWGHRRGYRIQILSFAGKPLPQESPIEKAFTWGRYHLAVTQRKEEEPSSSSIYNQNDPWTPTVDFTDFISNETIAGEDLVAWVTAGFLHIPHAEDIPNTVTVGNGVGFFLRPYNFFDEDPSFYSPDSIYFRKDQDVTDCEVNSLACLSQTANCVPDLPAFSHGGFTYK
Put plainly: In vitro inhibition of SSAO activity, radiolabeled benzylamine procedure (rat lung homogenate). The data set is classed as biochemical. How it is done: SSAO activity was also measured as described (Lizcano J M. Et al. (1998) Biochem J. 331:69). Briefly, rat lung homogenates were prepared by chopping the freshly removed tissue into small pieces and washing them thoroughly in PBS. The tissue was then homogenized 1:10 (w/v) in 10 mM potassium phosphate buffer (pH 7.8) and centrifuged at 1000 g at 4° C. for 10 minutes; the supernatant was kept frozen until ready to use. SSAO activity in 100 ul of lung homogenate was determined radiochemically using 20 uM ^14C-benzylamine as substrate. The reaction was carried out at 37° C. in a final volume of 300 ul of 50 mM potassium phosphate buffer (pH 7.2) and stopped with 100 ul of 2 M citric acid. Radioactively labeled products were extracted into; toluene/ethyl acetate (1:1, v/v) containing 0.6% (w/v) 2,5-diphenyloxdazole (PPO) before liquid scintillation counting.

Data set [2] has as its target T1, SSAO. Put plainly: In vitro inhibition of SSAO activity, radiolabeled benzylamine procedure (rat lung homogenate). Type of data set: biochemical.
A further data set deals with C57BL/6 mice. Put plainly: Experimental autoimmune encephalomyelitis (EAE) in mice. Type of data set: in vivo. The note with it: for EAE development after stopping treatment: after last treatment (d19-25). Here is the method: Thirty female C57BL/6 mice were immunized subcutaneously (s,c) with myelin oligodendrocyte glycoprotein 35-55 (MOG peptide 35-55) in Complete Freund Adjuvant (CFA) on day 0, followed by i.p. injections of pertussis toxin (one pertussis toxin injection on day 0, a second pertussis toxin injection on day 2). Groups of 10 mice received either the allylamine Compound mofegiline (M1, 10 mg/kg/dose, twice daily for 18 consecutive days), methotrexate (MTX, 2.5 mg/kg/day, every other day (Mon., Weds., Fri.) till day 18) or vehicle control (twice/day for 18 consecutive days) all starting from one day after the immunization and all administered i.p. Then animals were monitored for body weight, signs of paralysis and death according to a 0-5 scale of scoring system as follows; 1=limp tail or waddling gait with tail tonicity; 2=waddling gait with limp tail (ataxia); 2.5=ataxia with partial limb paralysis; 3=full paralysis of one limb; 3.5=full paralysis of one limb with partial paralysis of second limb; 4=full paralysis of two limbs; 4.5=moribund; 5=death. Results are shown in FIG. 1A, FIG. 1B, and FIG. 1C. […] (p=0.04 by repeated measure analysis to assess the treatment effect. Proper polynomial transformation, with the spacing corresponding to the collection days, was applied to test the time effect). Statistically significant differences in diseases severity between the M1 and vehicle-treated groups, continued even after stopping compound administration and were observed until the end of the study (d25).

The target of a further data set is T2, human MAO-B (Homo sapiens, UniProt P27338).
T2 construct: purchased BD Biosciences (MA, USA)
T2 sequence (P27338 1-520): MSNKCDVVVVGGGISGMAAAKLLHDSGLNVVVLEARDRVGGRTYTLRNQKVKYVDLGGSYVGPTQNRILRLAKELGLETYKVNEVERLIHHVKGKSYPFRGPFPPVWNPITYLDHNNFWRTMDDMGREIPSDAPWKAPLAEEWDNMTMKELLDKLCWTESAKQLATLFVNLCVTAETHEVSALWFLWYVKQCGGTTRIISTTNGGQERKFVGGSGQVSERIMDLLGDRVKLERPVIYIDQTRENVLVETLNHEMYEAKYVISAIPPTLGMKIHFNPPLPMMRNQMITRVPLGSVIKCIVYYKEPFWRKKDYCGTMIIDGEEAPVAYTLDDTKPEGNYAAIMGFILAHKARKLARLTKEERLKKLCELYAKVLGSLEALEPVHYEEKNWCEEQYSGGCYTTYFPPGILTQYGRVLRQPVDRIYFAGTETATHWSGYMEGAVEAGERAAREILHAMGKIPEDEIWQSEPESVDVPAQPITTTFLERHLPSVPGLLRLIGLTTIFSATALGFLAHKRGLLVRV
Put plainly: Inhibition of MAO-B activity, coupled colorimetric assay. Type of data set: biochemical. The note with it: recombinant human MAO-B, benzylamine substrate. Here is the method: (§1) The specificity of the different SSAO inhibitors was tested by determining their ability to inhibit MAO-A and MAO-B activities in vitro. Recombinant human MAO-A and human MAO-B enzymes were obtained from BD Biosciences (MA, USA). MAO activities were measured in a similar way as for SSAO except that no pre-incubation with inhibitor or substrate was performed. A pre-determined amount of inhibitor diluted in 0.2 M potassium phosphate buffer, pH 7.6, was added to each well, if required. The amount of inhibitor varied in each assay but was generally at a final concentration of between 50 nM and 1 mM. Controls lacked inhibitor. The following agents were then added to a final reaction volume of 200 μl in 0.2 M potassium phosphate buffer, pH 7.6: 0.04 mg/ml of MAO-A or 0.07 mg/ml MAO-B enzyme, 15 μl of 10 mM tyramine substrate (for MAO-A), or 15 μl 100 mM benzylamine substrate (for MAO-B), and 50 μl of freshly made chromogenic solution (as above). The plates were incubated for 60 min at 37° C. The increase in absorbance, reflecting MAO activity, was measured at 490 nm using microplate spectrophotometer (Power Wave 40, Bio-Tek Inst.). Inhibition was determined as percent inhibition compared to control after correcting for background absorbance and IC50 values, and was calculated using. GraphPad Prism software. […]

The next data set has as its target T3, human MAO-A (Homo sapiens, UniProt P21397).
T3 construct: purchased BD Biosciences (MA, USA)
T3 sequence (P21397 1-527): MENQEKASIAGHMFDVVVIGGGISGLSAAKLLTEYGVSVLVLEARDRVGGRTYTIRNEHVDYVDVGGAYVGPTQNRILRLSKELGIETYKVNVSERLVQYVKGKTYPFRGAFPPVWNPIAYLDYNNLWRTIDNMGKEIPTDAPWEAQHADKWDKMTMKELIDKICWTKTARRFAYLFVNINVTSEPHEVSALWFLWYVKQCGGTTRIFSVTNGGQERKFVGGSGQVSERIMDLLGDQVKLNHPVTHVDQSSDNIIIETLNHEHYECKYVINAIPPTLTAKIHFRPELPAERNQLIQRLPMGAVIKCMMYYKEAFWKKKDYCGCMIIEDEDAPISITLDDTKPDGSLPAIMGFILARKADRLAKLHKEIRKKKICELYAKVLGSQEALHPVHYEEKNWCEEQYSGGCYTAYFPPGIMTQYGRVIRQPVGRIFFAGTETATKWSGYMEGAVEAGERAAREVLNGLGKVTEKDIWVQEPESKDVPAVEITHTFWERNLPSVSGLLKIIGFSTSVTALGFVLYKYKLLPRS
Put plainly: Inhibition of MAO-A activity, coupled colorimetric assay. Type of data set: biochemical. The following applies: recombinant human MAO-A, tyramine substrate. Here is the method: as §1

Setting [3] is: Table I, compounds of formula X.
[4] abbreviates: Table II, compounds of formula III.

We go through 23 molecules from patent US20120172392A1, “AMINE-BASED AND AMIDE-BASED INHIBITORS OF SEMICARBAZIDE-SENSITIVE AMINE OXIDASE (SSAO) ENZYME ACTIVITY AND VAP-1 MEDIATED ADHESION USEFUL FOR TREATMENT OF DISEASES” (priority 2004, published 2012).

Counter-ions that a name gives are not always drawn.

`COc1ccc(OCC2=CCCNC2)cc1OC` [compound 1397]: the inhibition – broadly, the drop in the measured response relative to a control, in per cent – at 9 µM against SSAO [1] (Table II) is 54%. For the molecule `NCC(=O)NCc1cccnc1` [compound 1356], the IC50 (commonly the concentration that gives 50% inhibition) on SSAO [1] (setting [3]) worked out at 0.7 µM. Molecule `COc1cccc(OCC2=CCCNC2)c1` [compound 1401] showed an inhibition at 10 µM on SSAO [1] (Table II) of 74%. With `C#CC(N)CCCc1ccc(OC)cc1` (stereo not shown) (as salt: hydrochloride), the melting point (in general, the temperature, or range, at which the solid turns liquid) is 175 °C (dec.). Regarding `Fc1cccc(CCC2=CCNC2)c1` [compound 1367], the IC50 on SSAO [1] (setting [4]) was found to be 2.4 µM. `NCC(=O)NCc1cc(F)cc(C(F)(F)F)c1` (as salt: trifluoroacetate) [LJP 1383, 2-amino-N-(3-fluoro-5-trifluoromethylbenzyl)acetamide trifluoroacetate] came in with a melting point of 189.5 to 190.5 °C. `COc1ccc(OCC2=CCCNC2)cc1` [compound 1404] gave an inhibition at 10 µM against SSAO [1] (Table II) of 63%.

With `NCC(=O)NCc1cccnc1` [LJP 1356, 2-amino-N-pyridin-3-ylmethylacetamide], the melting point lay in the range of 87 to 88 °C. As for `NCC(=O)NCc1ccc(F)cc1` [compound 1334], inhibition on SSAO [1] (setting [3]) was half-maximal at 2.4 µM (IC50). Take `Fc1ccc(OCC2=CCCNC2)cc1` [compound 1395]: the inhibition at 10 µM at SSAO [1] (Table II) is 56%. Turning to `COc1cccc(CCC2=CCNC2)c1.Cl` [LJP 1368, 3-[2-(3-methoxyphenyl)ethyl]-3-pyrroline hydrochloride], at SSAO [2], the “reversibility of inhibition of SSAO enzyme activity” value is recorded as “irreversible”.

As for `NC/C(=C/F)CCc1ccc(F)cc1` [mofegiline], in the data set with C57BL/6 mice, the “EAE development after stopping treatment” value is “continuously observed for at least one more week after the last treatment”. In addition, the “disease (clinical) severity, EAE development” value with C57BL/6 mice (dosing period d0-18, i.p., mofegiline 10 mg/kg/dose twice daily, MTX 2.5 mg/kg/day every other day) is on record as “statistically significant reduction of disease seventy”. Further, the “disease incidence (mice affected)” value in the data set with C57BL/6 mice (dosing period up to day 18, 10 mg/kg/dose i.p. twice daily) worked out at 50%. In addition, in the data set on C57BL/6 mice (dosing period, 10 mg/kg/dose i.p. twice daily), the body weight result is “prevented body weight loss”.

For the molecule `NC/C=C(/Cc1ccccc1)C(F)(F)F` [Example 3, 3-benzyl-4,4,4-trifluoro-but-2-enylamine], the melting point was 170 °C (dec.). With `COc1cccc(CCC2=CCNC2)c1` [compound 1368], the IC50 on human MAO-B is above 1000 µM; on human MAO-A it was above 1000 µM; against SSAO [1] (setting [4]) it was 0.5 µM. For the molecule `Fc1cccc(OCC2=CCCNC2)c1` [compound 1398], at SSAO [1] (Table II), at 10 µM the inhibition was 61%.

Molecule `COc1ccc(CCC2=CCNC2)cc1OC` [compound 1427] returned an inhibition at 9 µM against SSAO [1] (Table II) of 50%. Molecule `C=CC(N)CCCc1ccccc1` (stereo not shown) [Example 3E, 1-(3-phenyl-propyl)-allylamine] showed a melting point of 143 to 144 °C.

`CN(Cc1cnc2nc(N)nc(N)c2n1)c1ccc(C(=O)N[C@@H](CCC(=O)O)C(=O)O)cc1` [MTX, methotrexate]: the “EAE development after stopping treatment” value with C57BL/6 mice was “a rise in disease incidence and severity was observed right after stopping the MTX treatment”. `NCC(=O)NCc1cc(F)cc(C(F)(F)F)c1` [compound 1383] gave a melting point of 189.5 to 190 °C. Besides, the IC50 at human MAO-B was above 1300 µM. The IC50 at human MAO-A was above 1300 µM. The half-inhibitory concentration (IC50) on SSAO [1] (setting [3]) stood at 0.033 µM. As for `COc1ccc(CCCC(N)c2ccc(F)c(F)c2)cc1` (stereo not shown) [Example 3D, 1-(3,4-difluorophenyl)-4-(4-methoxyphenyl)-butylamine], the melting point is 200 °C (dec.). `NCC(=O)NCc1ccc(F)cc1` (as salt: hydrochloride) [LJP 1334, 2-amino-N-(4-fluorobenzyl)acetamide] had a melting point of 114 to 115 °C. As to `COc1ccc(CCC2=CCNC2)cc1` [compound 1396], the IC50 against SSAO [1] (setting [4]) was determined as 2.1 µM.

`Fc1ccc(CCC2=CCNC2)cc1` [compound 1402]: the half-inhibitory concentration (IC50) against SSAO [1] (setting [4]) is 1.83 µM.
